Assay results as given in ChEMBL document CHEMBL1141831, “Alertenone, a dimer of suberosenone from Alertigorgia sp” (J Nat Prod, 1999).
In brackets after ≈: the same amount, converted by molar mass.

Tests used:
[1] = Cytotoxicity against human LOX cells after 2 days by XTT assay; type: functional, cell-based; conditions: 48 h
A549 = assay: Cytotoxicity against human A549 cells after 2 days by XTT assay; type: functional, cell-based; conditions: A549, 48 h
SNB-19 = assay: Cytotoxicity against human SNB-19 cells after 2 days by XTT assay; type: functional, cell-based; conditions: SNB-19, 48 h
M14 = assay: Cytotoxicity against human M14 cells after 2 days by XTT assay; type: functional, cell-based; conditions: M14, 48 h
MCF7 = assay: Cytotoxicity against human MCF7 cells after 2 days by XTT assay; type: functional, cell-based; conditions: MCF7, 48 h
OVCAR-3 = assay: Cytotoxicity against human OVCAR-3 cells after 2 days by XTT assay; type: functional, cell-based; conditions: OVCAR-3, 48 h
SF-295 = assay: Cytotoxicity against human SF-295 cells after 2 days by XTT assay; type: functional, cell-based; conditions: SF-295, 48 h
HOP-92 = assay: Cytotoxicity against human HOP-92 cells after 2 days by XTT assay; type: functional, cell-based; conditions: HOP-92, 48 h
SF-539 = assay: Cytotoxicity against human SF-539 cells after 2 days by XTT assay; type: functional, cell-based; conditions: SF-539, 48 h
Malme-3M = assay: Cytotoxicity against human MALME-3M cells after 2 days by XTT assay; type: functional, cell-based; conditions: 48 h
U-251 = assay: Antitumor activity against human U251 cells xenografted in mouse assessed as cell growth at 40 mg/kg by hollow-fiber assay relative to control; type: functional
NCI-H522 = assay: Antitumor activity against human NCI-H522 cells xenografted in mouse assessed as cell growth at 40 mg/kg by hollow-fiber assay relative to control; type: functional

| SMILES | IC50 [1] [µg/mL] | IC50 (A549) [µg/mL] | IC50 (SNB-19) [µg/mL] | IC50 (M14) [µg/mL] | IC50 (MCF7) [µg/mL] | IC50 (OVCAR-3) [µg/mL] | IC50 (SF-295) [µg/mL] | IC50 (HOP-92) [µg/mL] | IC50 (SF-539) [µg/mL] | IC50 (Malme-3M) [µg/mL] | Activity (U-251) [%] | Activity (NCI-H522) [%] |
| --- | --- | --- | --- | --- | --- | --- | --- | --- | --- | --- | --- | --- |
| C=C1C(=O)[C@H](C[C@@H]2C(=O)C[C@H]3[C@@H]4CC[C@H](C)[C@]23CC4(C)C)[C@H]2[C@@H]3CC[C@H](C)[C@]12CC3(C)C [ALERTENONE] | > 100 | 40 (≈ 91.6 µM) | 45 (≈ 103 µM) | 40 (≈ 91.6 µM) | 40 (≈ 91.6 µM) | 35 (≈ 80.2 µM) | 35 (≈ 80.2 µM) | 45 (≈ 103 µM) | 35 (≈ 80.2 µM) | 40 (≈ 91.6 µM) | – | – |
| C=C1C(=O)C[C@H]2[C@@H]3CC[C@H](C)[C@]12CC3(C)C [SUBEROSENONE] | 0.006 (≈ 0.0275 µM) | 1.63 (≈ 7.47 µM) | 0.006 (≈ 0.0275 µM) | 0.01 (≈ 0.0458 µM) | 0.43 (≈ 1.97 µM) | 0.02 (≈ 0.0916 µM) | 0.03 (≈ 0.137 µM) | 0.11 (≈ 0.504 µM) | 0.002 (≈ 0.00916 µM) | 0.008 (≈ 0.0366 µM) | 10 | 10 |
